Results published in PubChem BioAssay (NCI).
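A five-concentration, 48-hour dose response in 96-well plates underlies each endpoint, interpolated linearly between surrounding concentrations. Abbreviation: GI50, concentration required for 50% inhibition of growth. TGI is the concentration that stops growth completely.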

Legend:
Assay in all cases: growth of human tumour cells (NCI), 48 h
SNB-19 CNS = test system: SNB-19 CNS
HCT-15 colon = test system: HCT-15 colon
HOP-92 NSCLC = test system: HOP-92 NSCLC
UACC-62 melanoma = test system: UACC-62 melanoma
SK-MEL-5 melanoma = test system: SK-MEL-5 melanoma
K-562 leukemia = test system: K-562 leukemia
OVCAR-4 ovarian = test system: OVCAR-4 ovarian
A498 renal = test system: A498 renal
SF-295 CNS = test system: SF-295 CNS
MDA-MB-435 = test system: MDA-MB-435

## Oc1[nH]c2ccc(Cl)cc2c1/C=c1/ccc2c(c1)N=C(c1cc(F)cc(F)c1)N=2
SNB-19 CNS
  GI50: > 100 µM
  TGI: > 100 µM
HCT-15 colon
  GI50: 3.96 µM
  TGI: > 100 µM
HOP-92 NSCLC
  GI50: 2.41 µM
  TGI: 31.1 µM
UACC-62 melanoma
  GI50: 3.43 µM
  TGI: > 100 µM
SK-MEL-5 melanoma
  GI50: 4.07 µM
  TGI: > 100 µM
K-562 leukemia
  GI50: 3.12 µM
  TGI: > 100 µM
OVCAR-4 ovarian
  GI50: 2.77 µM
  TGI: > 100 µM

## O=[N+]([O-])c1cc(/C=N/NS(=O)(=O)c2ccc(F)cc2)c(O)c([N+](=O)[O-])c1
SNB-19 CNS
  TGI: > 100 µM
HCT-15 colon
  TGI: 67.4 µM
A498 renal
  TGI: 78.1 µM
HOP-92 NSCLC
  TGI: > 100 µM
UACC-62 melanoma
  TGI: > 100 µM
SK-MEL-5 melanoma
  TGI: 72 µM
K-562 leukemia
  TGI: > 100 µM
OVCAR-4 ovarian
  TGI: > 100 µM
SF-295 CNS
  TGI: > 100 µM

## COc1ccc(-n2sc(=O)n(Cc3ccc(COC(=O)C(C)c4ccc(CC(C)C)cc4)cc3)c2=O)cc1 (stereo not drawn)
SNB-19 CNS
  GI50: 7.38 µM
  TGI: 14.5 µM
HCT-15 colon
  GI50: 1.1 µM
  TGI: 2.86 µM
MDA-MB-435
  GI50: 1.32 µM
  TGI: 3.93 µM
HOP-92 NSCLC
  GI50: 1.01 µM
  TGI: 3.14 µM
UACC-62 melanoma
  GI50: 4.03 µM
  TGI: 10.5 µM
SK-MEL-5 melanoma
  GI50: 7.41 µM
  TGI: 14.5 µM
K-562 leukemia
  GI50: 1.43 µM
  TGI: 10.4 µM
OVCAR-4 ovarian
  GI50: 0.92 µM
  TGI: 1.99 µM
SF-295 CNS
  GI50: 10.6 µM
  TGI: 24.1 µM

## COc1ccc(-c2cncn2-c2cc(OC)c(OC)c(OC)c2)cc1F
SNB-19 CNS
  GI50: < 0.0146 µM
  TGI: > 100 µM
HCT-15 colon
  GI50: < 0.01 µM
  TGI: > 100 µM
A498 renal
  GI50: < 0.0495 µM
  TGI: 25 µM
HOP-92 NSCLC
  GI50: 6 µM
  TGI: 51.9 µM
UACC-62 melanoma
  GI50: < 0.0117 µM
  TGI: > 100 µM
SK-MEL-5 melanoma
  GI50: < 0.01 µM
  TGI: 13.1 µM
K-562 leukemia
  GI50: < 0.01 µM
  TGI: > 100 µM
OVCAR-4 ovarian
  GI50: 1.19 µM
  TGI: > 100 µM
SF-295 CNS
  GI50: < 0.0142 µM

## Cc1cccc(N=C2NC(=O)C(CC(=O)Nc3ccc(Cl)cc3C)S2)c1 (stereo not drawn)
SNB-19 CNS
  TGI: > 100 µM
HCT-15 colon
  TGI: > 100 µM
A498 renal
  TGI: > 100 µM
UACC-62 melanoma
  TGI: > 100 µM
SK-MEL-5 melanoma
  TGI: > 100 µM
K-562 leukemia
  TGI: > 100 µM
OVCAR-4 ovarian
  TGI: > 100 µM
SF-295 CNS
  TGI: > 100 µM

## C[C@]12CCCC(=O)C1C[C@H](C(=O)O)CC2 (stereo partly drawn)
SNB-19 CNS
  TGI: > 100 µM
HCT-15 colon
  TGI: > 100 µM
A498 renal
  TGI: > 100 µM
HOP-92 NSCLC
  TGI: > 100 µM
UACC-62 melanoma
  TGI: > 100 µM
K-562 leukemia
  TGI: > 100 µM
OVCAR-4 ovarian
  TGI: > 100 µM
SF-295 CNS
  TGI: > 100 µM

## O=C1c2cccc3cc([N+](=O)[O-])cc(c23)C(=O)N1O
SNB-19 CNS
  TGI: > 100 µM
HCT-15 colon
  TGI: > 100 µM
MDA-MB-435
  TGI: > 100 µM
HOP-92 NSCLC
  TGI: > 100 µM
UACC-62 melanoma
  TGI: 81.4 µM
SK-MEL-5 melanoma
  TGI: > 100 µM
K-562 leukemia
  TGI: > 100 µM
OVCAR-4 ovarian
  TGI: > 100 µM
SF-295 CNS
  TGI: > 100 µM

## CCOC(=O)C1(Cc2ccc3ccccc3c2)CCCCCN1 (stereo not drawn)
SNB-19 CNS
  TGI: > 100 µM
HCT-15 colon
  TGI: 41.4 µM
HOP-92 NSCLC
  TGI: 55.4 µM
UACC-62 melanoma
  TGI: > 100 µM
K-562 leukemia
  TGI: 68.7 µM
OVCAR-4 ovarian
  TGI: > 100 µM
SF-295 CNS
  TGI: 39 µM

## CCOc1cc(/C=N\NC(=O)N/N=C/c2ccc(O)c(OCC)c2)ccc1O
SNB-19 CNS
  GI50: 4 µM
  TGI: > 100 µM
HCT-15 colon
  GI50: 3.1 µM
  TGI: > 100 µM
A498 renal
  GI50: 5.68 µM
  TGI: 61.3 µM
HOP-92 NSCLC
  GI50: 87.5 µM
  TGI: > 100 µM
UACC-62 melanoma
  GI50: 1.79 µM
  TGI: > 100 µM
SK-MEL-5 melanoma
  GI50: 1.05 µM
  TGI: 18 µM
K-562 leukemia
  GI50: 0.441 µM
  TGI: > 100 µM
OVCAR-4 ovarian
  GI50: 54.3 µM
  TGI: > 100 µM
SF-295 CNS
  GI50: 2.25 µM
  TGI: > 100 µM
